Article PMC8194939, “Investigation on the characteristics and mechanisms of ACE inhibitory peptides by a thorough analysis of all 8000 tripeptides via binding free energy calculation” (Food Science & Nutrition, 2021)
Where a SMILES comes first, the peptide text is derived from it.

Target: T1, ACE from rabbit lung (Oryctolagus cuniculus, UniProt P12822)
T1 sequence (P12822 34-1310): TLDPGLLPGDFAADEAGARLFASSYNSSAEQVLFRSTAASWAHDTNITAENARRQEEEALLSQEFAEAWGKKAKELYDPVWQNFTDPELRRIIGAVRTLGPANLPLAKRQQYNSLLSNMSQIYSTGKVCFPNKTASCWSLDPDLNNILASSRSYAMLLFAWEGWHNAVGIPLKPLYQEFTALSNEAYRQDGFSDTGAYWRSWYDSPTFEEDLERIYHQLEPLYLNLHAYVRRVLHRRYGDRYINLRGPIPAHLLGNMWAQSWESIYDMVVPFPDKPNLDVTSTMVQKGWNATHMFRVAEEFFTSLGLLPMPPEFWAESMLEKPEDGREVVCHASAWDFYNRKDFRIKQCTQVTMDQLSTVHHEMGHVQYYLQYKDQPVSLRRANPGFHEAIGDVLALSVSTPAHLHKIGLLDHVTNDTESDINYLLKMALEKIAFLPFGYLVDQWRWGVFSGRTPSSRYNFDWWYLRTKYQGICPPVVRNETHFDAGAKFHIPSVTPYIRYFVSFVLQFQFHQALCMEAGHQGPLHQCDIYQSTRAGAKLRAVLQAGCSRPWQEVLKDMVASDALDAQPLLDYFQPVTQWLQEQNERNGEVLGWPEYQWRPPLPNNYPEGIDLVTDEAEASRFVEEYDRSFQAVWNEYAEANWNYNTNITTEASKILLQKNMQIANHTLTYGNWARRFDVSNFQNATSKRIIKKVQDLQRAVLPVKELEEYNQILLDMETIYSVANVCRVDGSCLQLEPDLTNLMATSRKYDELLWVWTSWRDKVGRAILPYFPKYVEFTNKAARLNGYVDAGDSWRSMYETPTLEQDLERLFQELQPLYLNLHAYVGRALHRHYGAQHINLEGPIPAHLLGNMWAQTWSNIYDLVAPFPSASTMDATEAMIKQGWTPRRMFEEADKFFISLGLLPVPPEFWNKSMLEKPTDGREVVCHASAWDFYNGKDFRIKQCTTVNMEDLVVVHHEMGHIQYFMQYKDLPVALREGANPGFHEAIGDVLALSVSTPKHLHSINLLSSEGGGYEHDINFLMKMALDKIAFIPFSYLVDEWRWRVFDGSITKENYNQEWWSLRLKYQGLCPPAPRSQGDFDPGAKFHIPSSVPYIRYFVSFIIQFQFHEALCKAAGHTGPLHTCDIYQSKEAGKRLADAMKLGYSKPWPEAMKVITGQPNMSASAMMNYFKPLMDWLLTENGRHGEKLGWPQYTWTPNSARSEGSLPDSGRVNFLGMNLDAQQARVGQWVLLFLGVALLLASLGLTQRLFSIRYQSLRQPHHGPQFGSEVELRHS
Assay: Assay of ACE inhibitory activity (HHL substrate, RP-HPLC of hippuric acid)
Experimental: ACE from rabbit lung and hippuryl‐histidyl‐leucine (HHL) were sourced from Sigma Chemical Co. (St. Louis).
Briefly, 20 μL of inhibitory peptides at different concentrations and 20 μL of 5 mM HHL solution were preincubated at 37°C for 5 min in 90 μL of buffer A (50 mM HEPES, 300 mM NaCl, pH 8.3). Next, 20 μL of ACE solution (0.04 U/mL) was added to trigger the reaction. After incubation at 37°C for 1 hr, the reaction was terminated by adding 50 μL of 1 M HCl. Next, 10 μL of the mixture was separated through RP‐HPLC (e2679, Waters) using an XBridge C18 column (4.6 mm × 150 mm, 5 μm, Waters). […] Hippuric acid was monitored at 228 nm. Triplicate tests were performed for each sample. […] For comparative purposes, the IC50 value of captopril was obtained using this methodology.

Row | IC50 | SMILES
1 | 5.86 ± 0.73 µM | N=C(N)NCCC[C@H](NC(=O)[C@@H](N)Cc1c[nH]c2ccccc12)C(=O)N[C@@H](Cc1ccc(O)cc1)C(=O)O [WRY] (H-Trp-Arg-Tyr-OH)
2 | 7.3 ± 2.11 µM | N[C@@H](Cc1c[nH]c2ccccc12)C(=O)N[C@@H](Cc1c[nH]c2ccccc12)C(=O)N[C@@H](Cc1c[nH]c2ccccc12)C(=O)O [WWW] (H-Trp-Trp-Trp-OH)

Further lines, the compound ahead of its results:

Row | SMILES | IC50
3 | N[C@@H](CC(=O)O)C(=O)NCC(=O)NCC(=O)O [DGG] (H-Asp-Gly-Gly-OH) | > 5000 µM
4 | NCC(=O)NCC(=O)NCC(=O)O [GGG] (H-Gly-Gly-Gly-OH) | > 5000 µM
5 | NCCCC[C@H](N)C(=O)N[C@@H](Cc1ccc(O)cc1)C(=O)N[C@@H](Cc1ccc(O)cc1)C(=O)O [KYY] (H-Lys-Tyr-Tyr-OH) | 20.5 ± 4.05 µM
6 | NC(=O)CC[C@H](NC(=O)[C@@H](N)Cc1c[nH]c2ccccc12)C(=O)N[C@@H](Cc1c[nH]c2ccccc12)C(=O)O [WQW] (H-Trp-Gln-Trp-OH) | 11.8 ± 1.79 µM
7 | N=C(N)NCCC[C@H](NC(=O)[C@@H](N)Cc1c[nH]c2ccccc12)C(=O)N[C@@H](Cc1ccccc1)C(=O)O [WRF] (H-Trp-Arg-Phe-OH) | 21.8 ± 2.5 µM
